# Assay results published in patent US10253027B2, “Aryl lactam kinase inhibitors” (Bristol-Myers Squibb Company, priority 2013, dated 2019).
# Target: T1, GST-Xa-hAAK1 (Homo sapiens, UniProt Q2M2I8)
# T1 construct: made in house
# Test: AAK1 Kinase Assay
# Assay type: biochemical
# Conditions: IC50 (nM), ATP 22 μM; 3 hours at room temperature; Caliper LabChip 3000
# Method in brief: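 Bacterially expressed GST-Xa-hAAK1 was combined with substrates and compounds (eleven concentrations) and incubated 3 h at room temperature, then stopped with EDTA. Fluorescent substrate and phosphorylated product were separated electrophoretically (Caliper LabChip), and IC50 values came from non-linear regression.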
# T1 sequence (Q2M2I8 whole entry): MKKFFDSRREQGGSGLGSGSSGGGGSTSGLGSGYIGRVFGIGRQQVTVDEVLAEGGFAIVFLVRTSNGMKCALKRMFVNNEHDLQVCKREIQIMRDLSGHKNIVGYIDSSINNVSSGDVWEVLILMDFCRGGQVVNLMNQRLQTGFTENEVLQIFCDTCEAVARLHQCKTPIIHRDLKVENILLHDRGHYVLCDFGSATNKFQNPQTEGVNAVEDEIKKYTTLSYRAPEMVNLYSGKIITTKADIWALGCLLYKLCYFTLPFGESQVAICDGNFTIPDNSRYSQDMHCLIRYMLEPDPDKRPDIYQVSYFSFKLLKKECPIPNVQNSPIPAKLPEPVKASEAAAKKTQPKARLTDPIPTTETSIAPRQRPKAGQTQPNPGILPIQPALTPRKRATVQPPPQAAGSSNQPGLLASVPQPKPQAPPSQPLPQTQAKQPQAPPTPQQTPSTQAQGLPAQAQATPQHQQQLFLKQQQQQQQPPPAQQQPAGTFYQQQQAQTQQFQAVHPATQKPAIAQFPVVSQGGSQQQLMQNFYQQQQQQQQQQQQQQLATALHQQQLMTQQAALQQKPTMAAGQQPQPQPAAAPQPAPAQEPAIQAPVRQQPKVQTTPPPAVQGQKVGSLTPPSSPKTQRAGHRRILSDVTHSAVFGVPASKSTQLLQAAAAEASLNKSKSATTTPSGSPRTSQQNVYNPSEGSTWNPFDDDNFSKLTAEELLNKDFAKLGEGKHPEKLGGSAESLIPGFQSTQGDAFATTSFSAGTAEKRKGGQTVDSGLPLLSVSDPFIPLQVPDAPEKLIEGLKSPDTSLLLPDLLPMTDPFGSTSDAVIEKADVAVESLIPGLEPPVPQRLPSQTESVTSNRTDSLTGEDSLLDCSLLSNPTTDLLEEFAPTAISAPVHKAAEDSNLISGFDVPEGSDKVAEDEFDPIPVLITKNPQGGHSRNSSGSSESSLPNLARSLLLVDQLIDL
row,Structure (SMILES),IC50
1,"CCCS(=O)(=O)N[C@H](CC(C)C)C(=O)Nc1ccc(-c2cnco2)c(OC)c1 [Example 70, (R)—N-(3-Methoxy-4-(oxazol-5-yl)phenyl)-4-methyl-2-(propylsulfonamido)pentanamide]",310 nM
2,"COc1cc(NC(=O)[C@@H](CC(C)C)NS(=O)(=O)c2ccccc2)ccc1-c1cnco1 [Example 71, (R)—N-(3-methoxy-4-(oxazol-5-yl)phenyl)-4-methyl-2-(phenylsulfonamido)pentanamide]",400 nM
3,"COc1cc(NC(=O)[C@@H](CC(C)C)NS(=O)(=O)Cc2ccccc2)ccc1-c1cnco1 [Example 72, (R)—N-(3-Methoxy-4-(oxazol-5-yl)phenyl)-4-methyl-2-(phenylmethylsulfonamido)pentanamide]",1300 nM
4,"COc1cc(NC(=O)[C@@H]2CCCCN2)ccc1-c1cnco1 [Example 73, (S)—N-(3-Methoxy-4-(oxazol-5-yl)phenyl)piperidine-2-carboxamide]",1500 nM
5,"COc1cc(NC(=O)[C@H](N)CC(C)(C)C)ccc1-c1cnco1 [Example 74, (R)-2-Amino-N-(3-methoxy-4-(oxazol-5-yl)phenyl)-4,4-dimethylpentanamide]",680 nM
6,"COc1cc(NC(=O)[C@H](N)CO)ccc1-c1cnco1 [Example 75, (R)-2-Amino-3-hydroxy-N-(3-methoxy-4-(oxazol-5-yl)phenyl)propanamide]",5100 nM
7,"COc1cc(NC(=O)C2CCCCN2C(=O)C(C)C)ccc1-c1cnco1 (centres unmarked) [Example 80, 1-Isobutyryl-N-(3-methoxy-4-(oxazol-5-yl)phenyl)piperidine-2-carboxamide]",630 nM
8,"COc1cc(NC(=O)[C@@H]2CCCN2C(C)C)ccc1-c1cnco1 [Example 81, (S)-1-Isopropyl-N-(3-methoxy-4-(oxazol-5-yl)phenyl)pyrrolidine-2-carboxamide]",510 nM
9,"COc1cc(NC(=O)C2CCCCN2C(C)C)ccc1-c1cnco1 (centres unmarked) [Example 83, 1-Isopropyl-N-(3-methoxy-4-(oxazol-5-yl)phenyl)piperidine-2-carboxamide]",360 nM
10,"COc1cc(NC(=O)C2NCCCC2C(C)C)ccc1-c1cnco1 (centres unmarked) [Example 85, 3-Isopropyl-N-(3-methoxy-4-(oxazol-5-yl)phenyl)piperidine-2-carboxamide]",8 nM
11,"COc1cc(NC(=O)C2CNCCN2C(C)C)ccc1-c1cnco1 (centres unmarked) [Example 86, 1-Isopropyl-N-(3-methoxy-4-(oxazol-5-yl)phenyl)piperazine-2-carboxamide]",52 nM
12,"COc1cc(NC(=O)[C@H]2C[C@H](F)CN2)ccc1-c1cnco1 [Example 89, (2R,4S)-4-Fluoro-N-(3-methoxy-4-(oxazol-5-yl)phenyl)pyrrolidine-2-carboxamide]",2000 nM
13,"COc1cc(NC(=O)[C@H]2C[C@@H](F)CN2)ccc1-c1cnco1 [Example 90, (2R,4R)-4-Fluoro-N-(3-methoxy-4-(oxazol-5-yl)phenyl)pyrrolidine-2-carboxamide]",1100 nM
14,"COc1cc(NC(=O)[C@H](N)C(C)C)c(F)cc1-c1cnco1 [Example 96, (R)-2-Amino-N-(2-fluoro-5-methoxy-4-(oxazol-5-yl)phenyl)-3-methylbutanamide]",780 nM
15,"COc1cc(NC(=O)[C@H](N)CC(C)C)c(F)cc1-c1cnco1 [Example 98, (R)-2-Amino-N-(2-fluoro-5-methoxy-4-(oxazol-5-yl)phenyl)-4-methylpentanamide]",1120 nM
16,"COc1cc(NC(=O)[C@@H](N)CC(C)C)c(F)cc1-c1cnco1 [Example 99, (S)-2-Amino-N-(2-fluoro-5-methoxy-4-(oxazol-5-yl)phenyl)-4-methylpentanamide]",780 nM
17,"COc1cc(NC(=O)[C@H](N)C2CCCC2)c(F)cc1-c1cnco1 [Example 100, (R)-2-Amino-2-cyclopentyl-N-(2-fluoro-5-methoxy-4-(oxazol-5-yl)phenyl)acetamide]",530 nM
18,"COc1cc(NC(=O)[C@H](N)CC(C)C)c(-c2nn[nH]n2)cc1-c1cnco1 [Example 102, (R)-2-Amino-N-(5-methoxy-4-(oxazol-5-yl)-2-(2H-tetrazol-5-yl)phenyl)-4-methylpentanamide]",6 nM
19,"CC(C)C[C@@H](N)C(=O)Nc1cc(F)c(-c2cnco2)cc1F [Example 105, (R)-2-Amino-N-(2,5-difluoro-4-(oxazol-5-yl)phenyl)-4-methylpentanamide]",620 nM
20,"CC(C)C[C@@H](N)C(=O)Nc1ccc(-c2cnco2)c(OC(F)(F)F)c1 [Example 106, (R)-2-Amino-4-methyl-N-(4-(oxazol-5-yl)-3-(trifluoromethoxy)phenyl)pentanamide]",160 nM
21,"COc1cc(-c2cnco2)c(F)cc1NC(=O)[C@H](N)CC(C)C [Example 107, (R)-2-Amino-N-(5-fluoro-2-methoxy-4-(oxazol-5-yl)phenyl)-4-methylpentanamide]",84 nM
22,"CC(C)C[C@@H](N)C(=O)Nc1ccc(-c2cnco2)c(C#N)c1 [Example 108, (R)-2-Amino-N-(3-cyano-4-(oxazol-5-yl)phenyl)-4-methylpentanamide]",47 nM
23,"COc1cc(NC(=O)[C@H](N)CC(C)C)ccc1-c1cnc[nH]1 [Example 109, (R)—N-(4-(1H-Imidazol-5-yl)-3-methoxyphenyl)-2-amino-4-methylpentanamide]",790 nM
24,"CC(C)C[C@@H](N)C(=O)Nc1ccc(-c2ccncc2)cc1-c1cn[nH]c1 [Example 112, (R)—N-(2-(1H-pyrazol-4-yl)-4-(pyridin-4-yl)phenyl)-2-amino-4-methylpentanamide]",1340 nM
25,"CC(C)C[C@@H](N)C(=O)Nc1ccc(-c2ccncc2)cc1-c1ccsc1 [Example 113, (R)-2-Amino-4-methyl-N-(4-(pyridin-4-yl)-2-(thiophen-3-yl)phenyl)pentanamide]",500 nM
26,"CC(C)C[C@@H](N)C(=O)Nc1ccc(-c2ccncc2)cc1C#N [Example 114, (R)-2-Amino-N-(2-cyano-4-(pyridin-4-yl)phenyl)-4-methylpentanamide]",75 nM
27,"CC(C)C[C@@H](N)C(=O)Nc1ccc(-c2ccncc2)cc1 [Example 116, (R)-2-Amino-4-methyl-N-(4-(pyridin-4-yl)phenyl)pentanamide]",25 nM

# Second part, the compound after the results:
row,IC50,Structure (SMILES)
1,110 nM,"COc1cc(NC(=O)C(N)CCC(F)(F)F)ccc1-c1cnco1 (centres unmarked) [Example 76, 2-Amino-5,5,5-trifluoro-N-(3-methoxy-4-(oxazol-5-yl)phenyl)pentanamide]"
2,810 nM,"COc1cc(NC(=O)[C@H](N)[C@H](C)O)ccc1-c1cnco1 [Example 77, (2R,3S)-2-Amino-3-hydroxy-N-(3-methoxy-4-(oxazol-5-yl)phenyl)butanamide]"
3,2900 nM,"COc1cc(NC(=O)[C@H]2C[C@H](OC)CN2)ccc1-c1cnco1 [Example 78, (2R,4S)-4-Methoxy-N-(3-methoxy-4-(oxazol-5-yl)phenyl)pyrrolidine-2-carboxamide]"
4,130 nM,"COc1cc(NC(=O)C[C@@H](N)C(C)C)ccc1-c1cnco1 [Example 79, (R)-3-Amino-N-(3-methoxy-4-(oxazol-5-yl)phenyl)-4-methylpentanamide]"
5,1800 nM,"COc1cc(NC(=O)[C@@H]2CCCN2C(=O)C(C)C)ccc1-c1cnco1 [Example 82, (S)-1-Isobutyryl-N-(3-methoxy-4-(oxazol-5-yl)phenyl)pyrrolidine-2-carboxamide]"
6,240 nM,"COc1cc(NC(=O)C(N)CC(C)(C)F)ccc1-c1cnco1 (centres unmarked) [Example 84, 2-Amino-4-fluoro-N-(3-methoxy-4-(oxazol-5-yl)phenyl)-4-methylpentanamide]"
7,8 nM,"COc1cc(NC(=O)[C@@H]2NCCC[C@@H]2C(C)C)ccc1-c1cnco1 [Example 88, (2R,3R)-3-Isopropyl-N-(3-methoxy-4-(oxazol-5-yl)phenyl)piperidine-2-carboxamide]"
8,25 nM,"COc1cc(NC(=O)[C@H](N)CC(C)C)c(C#N)cc1-c1cnco1 [Example 101, (R)-2-Amino-N-(2-cyano-5-methoxy-4-(oxazol-5-yl)phenyl)-4-methylpentanamide]"
9,360 nM,COc1cc(NC(=O)[C@H](N)CC(C)C)c(-c2nncs2)cc1-c1cnco1 [Example 103]
10,760 nM,"COc1cc(NC(=O)[C@H](N)CC(C)C)c(-c2cnco2)cc1-c1cnco1 [Example 104, (R)-2-Amino-N-(5-methoxy-2,4-bis(oxazol-5-yl)phenyl)-4-methylpentanamide]"
11,300 nM,"CC(C)C[C@@H](N)C(=O)Nc1ccc(-c2ccncc2)cc1C(F)(F)F [Example 111, (R)-2-Amino-4-methyl-N-(4-(pyridin-4-yl)-2-(trifluoromethyl)phenyl)pentanamide]"
12,28 nM,"CC(C)C[C@@H](N)C(=O)Nc1ccc(-c2ccncc2)cc1-c1nn[nH]n1 [Example 115, (R)-2-Amino-4-methyl-N-(4-(pyridin-4-yl)-2-(2H-tetrazol-5-yl)phenyl)pentanamide]"
13,460 nM,"COc1cc(NC(=O)[C@H](N)CC(C)C)ccc1-c1ccncn1 [Example 117, (R)-2-Amino-N-(3-methoxy-4-(pyrimidin-4-yl)phenyl)-4-methylpentanamide]"
14,6 nM,"CC(=O)Nc1cc(-c2ccc(NC(=O)[C@H](N)CC(C)C)cc2)ccn1 [Example 118, (R)—N-(4-(2-Acetamidopyridin-4-yl)phenyl)-2-amino-4-methylpentanamide]"
